In patent US20240368194A1, “IRAK4 DEGRADATION AGENT, AND PREPARATION METHOD THEREFOR AND USE THEREOF” (SHANGHAI LEADINGTAC PHARMACEUTICAL CO. LTD., priority 2021, published 2024):

Target: IRAK4 kinase (Homo sapiens (Human), UniProt Q9NWZ3)
Test: IRAK4 kinase activity test (KinEASE-STK S1 HTRF kit)
Format: biochemical
Settings: 2.5 nM IRAK4 kinase, 7 μM ATP, 37° C. 120 min
Protocol: Then 2.5 nM 1RAK4 kinase (Carna), 1 μM biotinylated polypeptide substrate (Cisbio) and 7 μM adenosine triphosphate (Sigma-Aldrich) were sequentially added, and the mixtures were incubated at 37° C. for 120 min. Subsequently, an anti-phosphoserine/threonine antibody (Cisbio) conjugated with a europium element compound and conjugated modified XL665 streptavidin (Cisbio) were added to the reaction systems to stop the reactions. After 1 h of incubation at room temperature, the fluorescence intensity of each well was measured at the excitation wavelength of 337 nm and the emission wavelengths of 620 nm and 665 nm with a microplate reader EnVision (PerkinElmer) in the HTRF mode, and Ratio values were calculated using the formula Ratio=(665 nm/620 nm)×[…]. The inhibition rate of the compound at each concentration was calculated by comparing the fluorescence intensity ratio with that of the control group. Then a non-linear curve fitting of logarithmic concentration-inhibition rate was performed using GraphPad Prism 7, and the IC50 value of the compound was obtained.

Chain of IRAK4 kinase (Q9NWZ3 whole entry): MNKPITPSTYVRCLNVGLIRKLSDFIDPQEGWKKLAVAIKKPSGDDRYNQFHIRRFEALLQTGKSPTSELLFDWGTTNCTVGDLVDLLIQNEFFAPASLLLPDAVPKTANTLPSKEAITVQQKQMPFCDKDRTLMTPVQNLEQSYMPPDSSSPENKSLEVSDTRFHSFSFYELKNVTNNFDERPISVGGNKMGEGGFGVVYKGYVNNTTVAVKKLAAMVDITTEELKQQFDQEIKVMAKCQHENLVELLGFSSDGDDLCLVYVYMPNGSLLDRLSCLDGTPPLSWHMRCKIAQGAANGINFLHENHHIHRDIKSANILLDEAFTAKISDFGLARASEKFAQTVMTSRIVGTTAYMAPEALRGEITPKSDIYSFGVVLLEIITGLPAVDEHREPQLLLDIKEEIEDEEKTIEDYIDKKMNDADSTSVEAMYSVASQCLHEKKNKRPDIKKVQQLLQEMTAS

Row | IC50 [nM] | Structure (SMILES)
1 | 67.2 | O=C1CCN(c2cc(C(=O)N3CCN(C[C@H]4CC[C@H](n5cc(NC(=O)c6cnn7ccc(N8C[C@H]9C[C@@H]8CO9)nc67)c(C(F)F)n5)CC4)CC3)ccc2Cl)C(=O)N1 [Example 3, 5-((1R,4R)-2-oxa-5-azabicyclo[2.2.1]heptan-5-yl)-N-(1-((1R,4R)-4-((4-(4-chloro-3-(2,4-dioxotetrahydropyrimidin-1(2H)-yl)benzoyl)piperazin-1-yl)methyl)cyclohexyl)-3-(difluoromethyl)-1H-pyrazol-4-yl)pyrazolo[1,5-a]pyrimidine-3-carboxamide]
2 | 37 | CN(CC1CCN(C(=O)c2ccc(Cl)c(N3CCC(=O)NC3=O)c2)CC1)C[C@H]1CC[C@H](n2cc(NC(=O)c3cnn4ccc(N5C[C@H]6C[C@@H]5CO6)nc34)c(C(F)F)n2)CC1 [Example 4, 5-((1R,4R)-2-oxa-5-azabicyclo[2.2.1]heptan-5-yl)-N-(1-((1R,4R)-4-((((1-(4-chloro-3-(2,4-dioxotetrahydropyrimidin-1(2H)-yl)benzoyl)piperidin-4-yl)methyl)(methyl)amino)methyl)cyclohexyl)-3-(difluoromethyl)-1H-pyrazol-4-yl)pyrazolo[1,5-a]pyrimidine-3-carboxamide]
3 | 524 | O=C1CCN(c2cc(C(=O)N3CCC4(CCN(CC5CCN(c6ccc(NC(=O)c7cnn8ccc(N9C[C@H]%10C[C@@H]9CO%10)nc78)c(Cl)c6)CC5)CC4)CC3)ccc2Cl)C(=O)N1 [Example 6, 5-((1R,4R)-2-oxa-5-azabicyclo[2.2.1]heptan-5-yl)-N-(2-chloro-4-(4-((9-(4-chloro-3-(2,4-dioxotetrahydropyrimidin-1(2H)-yl)benzoyl)-3,9-diazaspiro[5.5]undecan-3-yl)methyl)piperidin-1-yl)phenyl)pyrazolo[1,5-a]pyrimidine-3-carboxamide]
4 | 270 | O=C1CCN(c2cc(C(=O)N3CCC(C#CCN4CCC(n5cc(NC(=O)c6cnn7ccc(N8C[C@H]9C[C@@H]8CO9)nc67)c(C(F)F)n5)CC4)CC3)ccc2Cl)C(=O)N1 [Example 12, 5-((1R,4R)-2-oxa-5-azabicyclo[2.2.1]heptan-5-yl)-N-(1-(1-(3-(1-(4-chloro-3-(2,4-dioxotetrahydropyrimidin-1(2H)-yl)benzoyl)piperidin-4-yl)prop-2-yn-1-yl)piperidin-4-yl)-3-(difluoromethyl)-1H-pyrazol-4-yl)pyrazolo[1,5-a]pyrimidine-3-carboxamide]
5 | 124 | O=C1CCN(c2cc(C(=O)N3CCC(CCCN4CCC(n5cc(NC(=O)c6cnn7ccc(N8C[C@H]9C[C@@H]8CO9)nc67)c(C(F)F)n5)CC4)CC3)ccc2Cl)C(=O)N1 [Example 14, 5-((1R,4R)-2-oxa-5-azabicyclo[2.2.1]heptan-5-yl)-N-(1-(1-(3-(1-(4-chloro-3-(2,4-dioxotetrahydropyrimidin-1(2H)-yl)benzoyl)piperidin-4-yl)propyl)piperidin-4-yl)-3-(difluoromethyl)-1H-pyrazol-4-yl)pyrazolo[1,5-a]pyrimidine-3-carboxamide]
6 | 13.5 | O=C1CCN(c2ccc(C(=O)N3CCC4(CCC(CN5CCC(n6cc(NC(=O)c7cnn8ccc(N9CCOCC9)nc78)c(C(F)F)n6)CC5)CC4)CC3)cc2)C(=O)N1 [Example 27, N-(3-(difluoromethyl)-1-(1-((3-(4-(2,4-dioxotetrahydropyrimidin-1(2H)-yl)benzoyl)-3-azaspiro[5.5]undecan-9-yl)methyl)piperidin-4-yl)-1H-pyrazol-4-yl)-5-morpholinopyrazolo[1,5-a]pyrimidine-3-carboxamide]
7 | 27.1 | O=C1CCN(c2cc(N3CCN(CCCCN4CCC(n5cc(NC(=O)c6cnn7ccc(N8C[C@H]9C[C@@H]8CO9)nc67)c(C(F)F)n5)CC4)CC3)ccc2Cl)C(=O)N1 [Example 51, 5-((1R,4R)-2-oxa-5-azabicyclo[2.2.1]heptan-5-yl)-N-(1-(1-(4-(4-(4-chloro-3-(2,4-dioxotetrahydropyrimidin-1(2H)-yl)phenyl)piperazin-1-yl)butyl)piperidin-4-yl)-3-(difluoromethyl)-1H-pyrazol-4-yl)pyrazolo[1,5-a]pyrimidine-3-carboxamide]
8 | 28.9 | O=C1CCC(c2cc(C(=O)N3CCN(CCCC(=O)N4CCC(n5cc(NC(=O)c6cnn7ccc(N8CCOCC8)nc67)c(C(F)F)n5)CC4)CC3)ccc2F)C(=O)N1 (stereo not shown) [Example 62, N-(3-(difluoromethyl)-1-(1-(4-(4-(3-(2,6-dioxopiperidin-3-yl)-4-fluorobenzoyl)piperazin-1-yl)butanoyl)piperidin-4-yl)-1H-pyrazol-4-yl)-5-morpholinopyrazolo[1,5-a]pyrimidine-3-carboxamide]

Target: IRAK4 protein in THP-1 cells (Homo sapiens (Human), UniProt Q9NWZ3)
Test: Degradation of IRAK4 in THP-1 cells, human IRAK4 AlphaLISA assay
Format: cell-based
Settings: 24 h incubation
Protocol: THP-1 cells (Stem Cell Bank, Chinese Academy of Sciences) were inoculated onto a 24-well cell culture plate at 0.95 mL/well, with a cell density of 5×10^5 cells/well. The cell plate was incubated overnight in a 37° C., 5% carbon dioxide incubator, and 50 μL of a solution of a compound in dimethyl sulfoxide was added, such that the final concentration of the compound fell within the range of 0.03-3000 nM. After another 24 h of incubation, cells were collected into 1.5 mL centrifuge tubes and centrifuged at 1000 rpm at 4° C. for 5 min. The cell pellets were washed twice with 1×DPBS. The resuspended cells were lysed with 200 μL of lysis buffer (Western and IP cell lysis buffer (Beyotime), supplemented with 1 mM phenylmethylsulfonyl fluoride and protease inhibitor cocktail (Beyotime)), left to stand on ice for 30 mini, and then centrifuged at 14,000 g at 4° C. for 10 min. The supernatant samples were assayed by Western Blot for IRAK4 protein levels.
The above cell lysates were also tested for IRAK4 degradation using a human IRAK4 AlphaLISA assay kit (PerkinElmer, AL3117C). The method is specifically as follows: 2-μL test samples of cell lysate supernatant were transferred to a white 384-well plate (PerkinElmer, 6007299), and 4 μL of 5× anti-IRAK4 receptor beads (PerkinElmer, final concentration of 10 μg/mL) was then added. The plate was incubated at 23° C. for 30 min. Then 4 μL of 5× biotin-labeled anti-IRAK4 antibody (PerkinElmer, final concentration of 1 nM) was added, and the plate was incubated at 23° C. for 60 min. Finally, 10 μL of 2′ streptavidin-labeled donor beads (final concentration of 40 μg/mL) was added to each well, and the plate was incubated in the dark at 23° C. for 30 min. After the incubation was complete, AlphaLISA signal values were measured on a microplate reader EnVision (PerkinElmer, 2105) in the AlphaScreen standard mode, and IRAK4 concentrations were calculated from these signal values. Then a non-linear curve fitting of logarithmic concentration-inhibition rate was performed using GraphPad Prism 7, and the DC50 and Dmax values of the compound were obtained.

Chain of IRAK4 protein in THP-1 cells (Q9NWZ3 whole entry): as above

Row | DC50 [nM] | Dmax [%] | Structure (SMILES)
9 | 5.55 | 94.4 | O=C1CCN(c2cc(C(=O)N3CCC4(CCN(C[C@H]5CC[C@H](n6cc(NC(=O)c7cnn8ccc(N9CC%10(COC%10)C9)nc78)c(C(F)F)n6)CC5)CC4)CC3)ccc2Cl)C(=O)N1 [Example 48, N-(1-((1R,4R)-4-((9-(4-chloro-3-(2,4-dioxotetrahydropyrimidin-1(2H)-yl)benzoyl)-3,9-diazaspiro[5.5]undecan-3-yl)methyl)cyclohexyl)-3-(difluoromethyl)-1H-pyrazol-4-yl)-5-(2-oxa-6-azaspiro[3.3]heptan-6-yl)pyrazolo[1,5-a]pyrimidine-3-carboxamide]
10 | 8.13 | 88.2 | CN(CCC1CCN(C(=O)c2ccc(F)c(C3CCC(=O)NC3=O)c2)CC1)C(=O)[C@H]1CC[C@H](n2cc(NC(=O)c3cnn4ccc(N5CCOCC5)nc34)c(C(F)F)n2)CC1 (stereo partly drawn) [Example 54, N-(3-(difluoromethyl)-1-((1R,4R)-4-((2-(1-(3-(2,6-dioxopyridin-3-yl)-4-fluorobenzoyl)piperidin-4-yl)ethyl)(methyl)carbamoyl)cyclohexyl)-1H-pyrazol-4-yl)-5-morpholinopyrazolo[1,5-a]pyrimidine-3-carboxamide]
11 | 7.92 | 70.8 | COc1ccc(C(=O)N2CCC3(CCC(N(C)C[C@H]4CC[C@H](n5cc(NC(=O)c6cnn7ccc(N8CCOCC8)nc67)c(C(F)F)n5)CC4)CC3)CC2)cc1N1CCC(=O)NC1=O [Example 59, N-(3-(difluoromethyl)-1-((1R,4R)-4-(((3-(3-(2,4-dioxotetrahydropyrimidin-1(2H)-yl)-4-methoxybenzoyl)-3-azaspiro[5.5]undecan-9-yl)(methyl)amino)methyl)cyclohexyl)-1H-pyrazol-4-yl)-5-morpholinopyrazolo[1,5-a]pyrimidine-3-carboxamide]
12 | 14.3 | 87.2 | CN(CCC1CCN(C(=O)c2ccc(Cl)c(N3CCC(=O)NC3=O)c2)CC1)C[C@]1(O)CC[C@@H](n2cc(NC(=O)c3cnn4ccc(N5C[C@H]6C[C@@H]5CO6)nc34)c(C(F)F)n2)CC1 [Example 65, 5-((1R,4R)-2-oxa-5-azabicyclo[2.2.1]heptan-5-yl)-N-(1-((1S,4S)-4-(((2-(1-(4-chloro-3-(2,4-dioxotetrahydropyrimidin-1(2H)-yl)benzoyl)piperidin-4-yl)ethyl)(methyl)amino)methyl)-4-hydroxycyclohexyl)-3-(difluoromethyl)-1H-pyrazol-4-yl)pyrazolo[1,5-a]pyrimidine-3-carboxamide]
